{"source": "patent US9371337B2", "about": "“β-lactamase inhibitors” (The Regents of the University of California, priority 2011, dated 2016)", "key": {"[1]": {"test_system": "E. coli, AmpC-overproducing", "experiment": "MIC of third-generation cephalosporins alone and with compounds (Table 6)", "format": "cell-based, Escherichia coli", "settings": "antibiotic alone", "description": "(§1) The anti-resistance activity of inhibitors was investigated by the determination of the minimum inhibitory concentrations (MICs) of the β-lactam/inhibitor combination necessary to inhibit the growth of clinically-isolated bacteria resistant to third-generation cephalosporins via expression of class A or class C β-lactamases (Table 6).\n(§2) Susceptibility testing was performed and interpreted following the guidelines of CLSI. (Clinical and Laboratory Standards Institute, Performance standards for antimicrobial susceptibility testing, 20th Informational Supplement, M100-S20 2010) The compounds were dissolved in 50% DMSO, and dilutions were performed using Muller-Hinton medium. An adequate final concentration was obtained to determine the minimum inhibitory concentrations (MICs). The concentration of DMSO was maintained below 5%. The inhibitors were tested for synergy with the third-generation β-lactams ceftazidime and cefotaxime against several clinical bacteria. The ratio of β-lactams to inhibitors was 1:4. Each value reported reflects the average of three independent experiments. […] The Friedman's test and the Wilcoxon signed rank test were used to compare MIC values. Statistical significance was established at p<0.05.\n(§3) Table 6. MICs (μg/ml) of third-generation cephalosporins alone and in association with the compounds (ratio 1/4) for clinical bacteria. CTX, cefotaxime and CAZ, ceftazidime. ^1, AmpC-overproducing bacteria; ^2, CTX-M-14-producing E. coli; ^3, KPC-2-producing K. pneumoniae; ^4, OXA-48-producing K. pneumoniae; ^5, NDM-1-producing C. freundii."}, "[2]": {"test_system": "E. coli 146, AmpC-overproducing", "experiment": "MIC of third-generation cephalosporins alone and with compounds (Table 6)", "format": "cell-based, Escherichia coli", "settings": "antibiotic alone", "description": "as §1, §2, §3"}, "[3]": {"test_system": "CTX-M-14-producing E. coli", "experiment": "MIC of third-generation cephalosporins alone and with compounds (Table 6)", "format": "cell-based, Escherichia coli", "settings": "antibiotic alone", "description": "as §1, §2, §3"}, "[4]": {"test_system": "E. coli 145, AmpC-overproducing", "experiment": "MIC of third-generation cephalosporins alone and with compounds (Table 6)", "format": "cell-based, Escherichia coli", "settings": "antibiotic alone", "description": "as §1, §2, §3"}, "[5]": {"test_system": "E. coli 144, AmpC-overproducing", "experiment": "MIC of third-generation cephalosporins alone and with compounds (Table 6)", "format": "cell-based, Escherichia coli", "settings": "antibiotic alone", "description": "as §1, §2, §3"}, "[6]": {"test_system": "E. coli 142, AmpC-overproducing", "experiment": "MIC of third-generation cephalosporins alone and with compounds (Table 6)", "format": "cell-based, Escherichia coli", "settings": "antibiotic alone", "description": "as §1, §2, §3"}, "[7]": {"test_system": "E. coli R1, AmpC-overproducing", "experiment": "MIC of third-generation cephalosporins alone and with compounds (Table 6)", "format": "cell-based, Escherichia coli", "settings": "antibiotic alone", "description": "as §1, §2, §3"}, "[8]": {"test_system": "C. freundii, AmpC-overproducing", "experiment": "MIC of third-generation cephalosporins alone and with compounds (Table 6)", "format": "cell-based, Citrobacter freundii", "settings": "antibiotic alone", "description": "as §1, §2, §3"}, "[9]": {"test_system": "NDM-1-producing C. freundii", "experiment": "MIC of third-generation cephalosporins alone and with compounds (Table 6)", "format": "cell-based, Citrobacter freundii", "settings": "antibiotic alone", "description": "as §1, §2, §3"}, "[10]": {"test_system": "C. freundii 101, AmpC-overproducing", "experiment": "MIC of third-generation cephalosporins alone and with compounds (Table 6)", "format": "cell-based, Citrobacter freundii", "settings": "antibiotic alone", "description": "as §1, §2, §3"}, "[11]": {"test_system": "E. cloacae 135, AmpC-overproducing", "experiment": "MIC of third-generation cephalosporins alone and with compounds (Table 6)", "format": "cell-based, Enterobacter cloacae", "settings": "antibiotic alone", "description": "as §1, §2, §3"}, "[12]": {"test_system": "E. cloacae, AmpC-overproducing", "experiment": "MIC of third-generation cephalosporins alone and with compounds (Table 6)", "format": "cell-based, Enterobacter cloacae", "settings": "antibiotic alone", "description": "as §1, §2, §3"}, "[13]": {"test_system": "hospital-derived strain of E. coli that overproduces AmpC", "experiment": "MIC for the strain used in the mouse model", "format": "cell-based", "settings": "Escherichia coli"}, "[14]": {"test_system": "E. cloacae overproducing chromosomally-mediated class C β-lactamase", "experiment": "MIC of third-generation cephalosporins alone and with compounds 4 or 9 (Table 3)", "format": "cell-based, Enterobacter cloacae", "settings": "antibiotic alone", "from_the_text": "Antimicrobial activity was investigated quantitatively to determine the minimum inhibitory concentrations (MICs) of the β-lactam/inhibitor combination necessary to inhibit the bacterial growth (Table 3). The MICs of β-lactams alone against the strains corresponded to a high level of resistance according to Clinical and Laboratory Standards Institute (CLSI) standards. (Clinical and Laboratory Standards Institute, Performance standards for antimicrobial susceptibility testing, 20th Informational Supplement, M100-S20 2010) The compounds had no measurable antibiotic activity when used alone.\nSusceptibility testing was performed and interpreted following the guidelines of CLSI. (Clinical and Laboratory Standards Institute, Performance standards for antimicrobial susceptibility testing, 20th Informational Supplement, M100-S20 2010) The compounds were dissolved in 50% DMSO, and dilutions were performed using Muller-Hinton medium. An adequate final concentration was obtained to determine the minimum inhibitory concentrations (MICs). The concentration of DMSO was maintained below 5%. The inhibitors were tested for synergy with the third-generation β-lactams ceftazidime and cefotaxime against several clinical bacteria. […] Each value reported reflects the average of three independent experiments. […] A Klebsiella pneumoniae isolate produced the inducible plasmid-mediated class C enzyme DHA-1. The Friedman's test and the Wilcoxon signed rank test were used to compare MIC values. Statistical significance was established at p<0.05."}, "[15]": {"test_system": "P. aeruginosa, AmpC-overproducing", "experiment": "MIC of third-generation cephalosporins alone and with compounds (Table 6)", "format": "cell-based, Pseudomonas aeruginosa", "settings": "antibiotic alone", "description": "as §1, §2\nTable 6. MICs (μg/ml) of third-generation cephalosporins alone and in association with the compounds (ratio 1/4) for clinical bacteria. […]"}}, "data": [{"smiles": "CO/N=C(\\C(=O)N[C@@H]1C(=O)N2C(C(=O)O)=C(COC(C)=O)CS[C@H]12)c1csc(N)n1", "note": "[Cefotaxime]", "values": [{"measurement": "MIC, cephalosporin alone", "setting": "[1]", "result": 8, "unit": "µg/mL"}, {"measurement": "MIC, cephalosporin alone", "setting": "[2]", "result": 8, "unit": "µg/mL"}, {"measurement": "MIC, cephalosporin alone", "setting": "[3]", "result": 256, "unit": "µg/mL"}, {"measurement": "MIC, cephalosporin alone", "setting": "[4]", "result": 16, "unit": "µg/mL"}, {"measurement": "MIC, cephalosporin alone", "setting": "[5]", "result": 16, "unit": "µg/mL"}, {"measurement": "MIC, cephalosporin alone", "setting": "[6]", "result": 4, "unit": "µg/mL"}, {"measurement": "MIC, cephalosporin alone", "setting": "[7]", "result": 4, "unit": "µg/mL"}, {"measurement": "MIC, cephalosporin alone", "setting": "[8]", "result": 16, "unit": "µg/mL"}, {"measurement": "MIC, cephalosporin alone", "setting": "[9]", "result": 512, "unit": "µg/mL"}, {"measurement": "MIC, cephalosporin alone", "setting": "[10]", "result": 64, "unit": "µg/mL"}, {"measurement": "MIC, cephalosporin alone", "setting": "[11]", "result": 128, "unit": "µg/mL"}, {"measurement": "MIC, cephalosporin alone", "setting": "[12]", "result": 64, "unit": "µg/mL"}, {"measurement": "MIC", "setting": "[13]", "result": 32, "unit": "µg/mL"}, {"measurement": "MIC, cephalosporin alone", "setting": "[14]", "result": 64, "unit": "µg/mL"}, {"measurement": "MIC, cephalosporin alone", "setting": "[15]", "result": ">128", "unit": "µg/mL"}]}]}
